# Data taken from patent publication US20140065655A1, “SCREENING METHOD FOR SUBSTANCE ACTING ON MAINTENANCE OF EPITHELIAL PROPERTIES OF CELL” (SCIVAX CORPORATION, priority 2012, published 2014).
# Tests used:
# [1] = system: human-lung-cancer-cells derived strain A549; test: Effect of epithelial-mesenchymal transition inhibitor on morphology and hypoxic area (LOX-1 red signal) of spheroids on NanoCulture plate; assay type: cell-based
# Experimental: 5-%-FBS-containing DMEM culture medium and 1.0-%-Matrigel (registered trademark) containing DMEM culture medium were added in respective wells of a cell culture vessels NanoCulture (registered trademark) plate (made by SCIVAX corporation, 384-well plate, material of concavity-convexity structure surface=polymethylpentene (TPX made by MITSUI Chemical Co., Ltd.), planar shape of concavo-convex structure=square, width between unit structures (line width)=700 nm, minimum internal diameter of unit structure=3 μm, and depth=1 μm) by 25 μl, and were subjected to centrifugal force for five minutes at 1000×g.
# A cell suspension having human-lung-cancer-cells derived strain A549 adjusted to 13.5×10^4 cells/ml by a 5-%-FBS-containing DMEM culture medium was added to each well of the above-explained plate by 25 μl (the number of cells was 3.4×10^3 cells/well, and the final concentration of the culture medium additive was 5% FBS and 0.5% Matrigel).
# At the third day of the culturing, TGF-β2 (made by R&D systems corporation, 302-B2-002) and TNF-α (made by R&D systems corporation, 210-TA-010) which were epithelial-mesenchymal transition inducers were added to each well in such a way that a final concentration became 5 ng/ml and 10 ng/ml, respectively. While at the same time, SB431542 (made by Miltenyi Biotec corporation, 130-095-561) that was an inhibitor of TGF-β2 was added in such a way that a final concentration became 10 μM.
# Dimethyl-sulfoxide was added to all wells where no SB431542 was added in such a way that a final concentration became 0.1%.
# At the fifth day of the culturing, a hypoxic area detection reagent LOX-1 (made by SCIVAX corporation) was added to each well in such a way that a final concentration became 2 μM. LOX-1 is a reagent that contains iridium complex which emits red phosphorescence.
# An observation through a fluorescent microscope was carried out at the sixth day of the culturing.
# [2] = system: N-cadherin; test: qRT-PCR expression level of N-cadherin gene (mesenchymal marker) in A549 spheroids; assay type: cell-based, human; conditions: A549, SB431542 10 μM with TGF-β2 5 ng/ml and TNF-α 10 ng/ml, sixth day, corrected by TBP (FIG. 7)
# Experimental: (§1) In order to verify whether or not a change in the morphology of the spheroid confirmed in the second example reflects an epithelial-mesenchymal transition and an epithelial-mesenchymal transition inhibition, a result of measuring an expression level of a gene that is known as an epithelial or mesenchymal marker through qRT-PCR is shown in FIGS. 6 to 9. The processes from (1) pre-incubation to (3) addition of the epithelial-mesenchymal transition inducer and inhibitor were carried out likewise the second example. Next, at the sixth day of the culturing, all RNAs were extracted from each sample using RNeasy Plus Mini Kit (made by QIAGEN corporation), and such RNAs having undergone reverse transcription using PrimeScript RT reagent Kit (made by TAKARABIO Inc.) were used for qRT-PCR. SYBER Premix Ex Tagll (made by TAKARABIO Inc.) was used for PCR. Moreover, Thermal Cycler Dice (made by TAKARABIO Inc.) was used for a reaction and a detection. Note that data is corrected by the expression level of internal standard gene (TBP), and is shown as a relative value when the expression level of the control is taken as 1.
# [3] = system: E-cadherin; test: qRT-PCR expression level of E-cadherin gene (epithelial marker) in A549 spheroids; assay type: cell-based, human; conditions: A549, SB431542 10 μM with TGF-β2 5 ng/ml and TNF-α 10 ng/ml, sixth day, corrected by TBP (FIG. 6)
# Experimental: as §1
# [4] = A549, SB431542 10 μM with TGF-β2 5 ng/ml and TNF-α 10 ng/ml, LOX-1 2 μM, sixth day
structure (smiles),measurement,setting,value
NC(=O)c1ccc(-c2nc(-c3ccc4c(c3)OCO4)c(-c3ccccn3)[nH]2)cc1 [SB431542],morphology of spheroids (bright field image),"[1]; A549, SB431542 10 μM with TGF-β2 5 ng/ml and TNF-α 10 ng/ml added at third day, observed sixth day, compared with well where no inhibitor was added",the collapse of spheroids were suppressed and the contours of the spheroids had a small concavity and convexity
same,"red intensity and red area (hypoxic area, LOX-1, fluorescent field image)",[1]; [4],the red intensity was high and the red area was large
same,"red signal (quantified, FIG. 5) relative to the well where no inhibitor was added",[1]; [4],about twice
same,expression level of N-cadherin,[2],decreased to substantially same level as that of the control
same,expression level of E-cadherin,[3],~60 % of the control
